Results taken from patent US20240246964A1 (Arbutus Biopharma Corporation, priority 2021, published 2024).

Biological target: human PD-L1 (Homo sapiens (Human), UniProt Q9NZQ7)
Assay: T cell activation luciferase reporter cell culture system (T Cell Activation Assay)
Format: cell-based
Settings: luciferase reporter assay; PD-L1 aAPC/CHO-K1 cells with PD-1 effector Jurkat T cells

Chain of human PD-L1 (Q9NZQ7 19-290): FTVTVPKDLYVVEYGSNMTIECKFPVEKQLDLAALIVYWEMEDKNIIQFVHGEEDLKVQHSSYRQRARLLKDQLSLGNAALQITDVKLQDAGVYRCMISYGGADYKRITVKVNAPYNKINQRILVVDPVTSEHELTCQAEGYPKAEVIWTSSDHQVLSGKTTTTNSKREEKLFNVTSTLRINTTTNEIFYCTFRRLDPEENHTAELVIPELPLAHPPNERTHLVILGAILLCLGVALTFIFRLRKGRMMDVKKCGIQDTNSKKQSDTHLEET

**Q.** Which EC50 does the source give for `COc1nc(-c2cccc(-c3ccnc(-c4cc(OC)c5nc(CNCC6(O)CC6)nn5c4)c3Cl)c2Cl)ccc1CNC1CCN(C(C)=O)CC1` [Example 699, 1-(4-(((6-(2-chloro-3-(3-chloro-2-(2-((((1-hydroxycyclopropyl)methyl)amino)methyl)-8-methoxy-[1,2,4]triazolo[1,5-a]pyridin-6-yl)pyridin-4-yl)phenyl)-2-methoxypyridin-3-yl)methyl)amino)piperidin-1-yl)ethan-1-one] here?
**A.** 0.0515 µM

**Q.** `COc1cc(-c2nccc(-c3cccc(-c4ccc(CNCCO)c(OC)n4)c3Cl)c2Cl)cc2c1CN(CCC1CCNCC1)CC2` [Cmpd 85, 2-(((6-(2-chloro-3-(3-chloro-2-(8-methoxy-2-(2-(piperidin-4-yl)ethyl)-1,2,3,4-tetrahydroisoquinolin-6-yl)pyridin-4-yl)phenyl)-2-methoxypyridin-3-yl)methyl)amino)ethan-1-ol] was tested. Which EC50 did it give?
**A.** 0.142 µM

**Q.** For `CCOc1cc(-c2nccc(-c3cccc(-c4ccc(CNC5CCN(C(C)=O)CC5)c(OC)n4)c3Cl)c2Cl)cn2nc(CNC3CCN(C(C)=O)CC3)nc12` [Example 585, 1-(4-(((6-(4-(3-(5-(((1-Acetylpiperidin-4-yl)amino)methyl)-6-methoxypyridin-2-yl)-2-chlorophenyl)-3-chloropyridin-2-yl)-8-ethoxy-[1,2,4]triazolo[1,5-a]pyridin-2-yl)methyl)amino)piperidin-1-yl)ethan-1-one], which EC50 is on record?
**A.** ≥ 10 µM

**Q.** For `COc1nc(-c2cccc(-c3ccnc(-c4cc5c(=O)n(CCNCC(=O)O)c(OC)nn5c4)c3Cl)c2Cl)ccc1CNC[C@@H]1CCC(=O)N1` [Example 460, (S)-(2-(6-(3-Chloro-4-(2-chloro-3-(6-methoxy-5-((((5-oxopyrrolidin-2-yl)methyl)amino)methyl)pyridin-2-yl)phenyl)pyridin-2-yl)-2-methoxy-4-oxopyrrolo[2,1-f][1,2,4]triazin-3(4H)-yl)ethyl)glycine], which EC50 is on record?
**A.** 0.0965 µM

**Q.** Which EC50 does the source give for `COc1cc(-c2nccc(-c3cccc(-c4ccc(CN5CC6(CCN(C(C)=O)C6)C5)c(OC)n4)c3Cl)c2Cl)ccc1CN1CC2(CCN(C(C)=O)C2)C1` [Example 671, 1-(2-((6-(3-(2-(4-((6-Acetyl-2,6-diazaspiro[3.4]octan-2-yl)methyl)-3-methoxyphenyl)-3-chloropyridin-4-yl)-2-chlorophenyl)-2-methoxypyridin-3-yl)methyl)-2,6-diazaspiro[3.4]octan-6-yl)ethan-1-one] here?
**A.** 0.0296 µM

**Q.** `COc1cc(-c2nccc(-c3cccc(-c4ccc(CN5CC6(CNC(=O)C6)C5)c(OC)n4)c3C(F)(F)F)c2Cl)ccc1CN1CC2(CNC(=O)C2)C1` [Example 576, 2-((6-(3-(3-chloro-2-(3-methoxy-4-((7-oxo-2,6-diazaspiro[3.4]octan-2-yl)methyl)phenyl)pyridin-4-yl)-2-(trifluoromethyl)phenyl)-2-methoxypyridin-3-yl)methyl)-2,6-diazaspiro[3.4]octan-7-one] was tested. Which EC50 did it give?
**A.** ≥ 10 µM

**Q.** How did the EC50 turn out when `COc1cc(-c2ncnc(-c3cccc(-c4ccc(CN5CC6(CNC(=O)C6)C5)c(OC)n4)c3Cl)c2Cl)ccc1CN1CC2(CNC(=O)C2)C1` [Example 554, 2-((6-(2-chloro-3-(5-chloro-6-(3-methoxy-4-((7-oxo-2,6-diazaspiro[3.4]octan-2-yl)methyl)phenyl)pyrimidin-4-yl)phenyl)-2-methoxypyridin-3-yl)methyl)-2,6-diazaspiro[3.4]octan-7-one] was run?
**A.** 0.103 µM

**Q.** Which EC50 does the source give for `COc1cc(-c2nccc(-c3cccc(-c4ccc5c(CNC6CCS(=O)(=O)CC6)cn(C)c5n4)c3Cl)c2Cl)ccc1CNC1CCN(C(C)=O)CC1` [Example 558, 1-(4-((4-(3-Chloro-4-(2-chloro-3-(3-(((1,1-dioxidotetrahydro-2H-thiopyran-4-yl)amino)methyl)-1-methyl-1H-pyrrolo[2,3-b]pyridin-6-yl)phenyl)pyridin-2-yl)-2-methoxybenzyl)amino)piperidin-1-yl)ethan-1-one] here?
**A.** ≥ 10 µM

**Q.** For `COc1cc(-c2nccc(-c3cccc(-c4ccc(CN(C)C[C@@H]5CCC(=O)N5)c(OC)n4)c3Cl)c2Cl)ccc1CN(C)C[C@@H]1CCC(=O)N1` [Example 472, (S)-5-((((6-(2-Chloro-3-(3-chloro-2-(3-methoxy-4-((methyl(((S)-5-oxopyrrolidin-2-yl)methyl)amino)methyl)phenyl)pyridin-4-yl)phenyl)-2-methoxypyridin-3-yl)methyl)(methyl)amino)methyl)pyrrolidin-2-one], which EC50 is on record?
**A.** 0.0317 µM

**Q.** `COc1cc(-c2nccc(-c3cccc(-c4cc(Cl)c(CNC[C@@H]5CCC(=O)N5)c(OC)n4)c3Cl)c2Cl)cc2c1CN(C[C@H](C)O)CC2` [Cmpd 86, (S)-5-((((4-chloro-6-(2-chloro-3-(3-chloro-2-(2-((S)-2-hydroxypropyl)-8-methoxy-1,2,3,4-tetrahydroisoquinolin-6-yl)pyridin-4-yl)phenyl)-2-methoxypyridin-3-yl)methyl)amino)methyl)pyrrolidin-2-one] was tested. Which EC50 did it give?
**A.** 0.0275 µM

**Q.** With `COc1cc(-c2nccc(-c3cccc(-c4cc(Cl)c(CNC[C@@H]5CCC(=O)N5)c(OC)n4)c3Cl)c2Cl)ccc1CNCC(=O)O` [Cmpd 105, (S)-(4-(3-chloro-4-(2-chloro-3-(4-chloro-6-methoxy-5-((((5-oxopyrrolidin-2-yl)methyl)amino)methyl)pyridin-2-yl)phenyl)pyridin-2-yl)-2-methoxybenzyl)glycine] as the compound, how does the EC50 read?
**A.** 0.191 µM

**Q.** For `COc1cc(-c2nccc(-c3cccc(-c4ccc(CNCC5(O)CC5)c(OC)n4)c3Cl)c2Cl)ccc1CNCC1(O)CC1` [Example 504, 1-((((6-(2-Chloro-3-(3-chloro-2-(4-((((1-hydroxycyclopropyl)methyl)amino)methyl)-3-methoxyphenyl)pyridin-4-yl)phenyl)-2-methoxypyridin-3-yl)methyl)amino)methyl)cyclopropan-1-ol], which EC50 is on record?
**A.** 0.0364 µM

**Q.** For `COc1nc(-c2cccc(-c3ccnc(-c4cc(OC)c5nc(CNCCCF)nn5c4)c3Cl)c2Cl)ccc1CNC1CCN(C(C)=O)CC1` [Example 713, 1-(4-(((6-(2-Chloro-3-(3-chloro-2-(2-(((3-fluoropropyl)amino)methyl)-8-methoxy-[1,2,4]triazolo[1,5-a]pyridin-6-yl)pyridin-4-yl)phenyl)-2-methoxypyridin-3-yl)methyl)amino)piperidin-1-yl)ethan-1-one], which EC50 is on record?
**A.** 0.13 µM

**Q.** For `COc1nc(-c2cccc(-c3ccnc(-c4cnc5c(CN6CCC(NC(C)=O)CC6)cn(C)c5c4)c3Cl)c2Cl)ccc1CNC[C@@H]1CCC(=O)N1` [Example 377, (S)—N-(1-((6-(3-chloro-4-(2-chloro-3-(6-methoxy-5-((((5-oxopyrrolidin-2-yl)methyl)amino)methyl)pyridin-2-yl)phenyl)pyridin-2-yl)-1-methyl-1H-pyrrolo[3,2-b]pyridin-3-yl)methyl)piperidin-4-yl)acetamide], which EC50 is on record?
**A.** 0.405 µM

**Q.** For `COc1cc(-c2nccc(-c3cccc(-c4ccc(CNC5CCN(S(C)(=O)=O)CC5)c(OC)n4)c3Cl)c2Cl)ccc1CNC1CCN(S(C)(=O)=O)CC1` [Example 372, N-((6-(2-Chloro-3-(3-chloro-2-(3-methoxy-4-(((1-(methylsulfonyl)piperidin-4-yl)amino)methyl)phenyl)pyridin-4-yl)phenyl)-2-methoxypyridin-3-yl)methyl)-1-(methylsulfonyl)piperidin-4-amine], which EC50 is on record?
**A.** 0.0235 µM

**Q.** Which EC50 does the source give for `COc1nc(-c2cccc(-c3ccnc(-c4cc(Cl)c5c(c4)CCN(C[C@H](C)O)C5)c3Cl)c2Cl)ccc1CNC[C@@H]1CCC(=O)N1` [Cmpd 69, (S)-5-((((6-(2-chloro-3-(3-chloro-2-(8-chloro-2-((S)-2-hydroxypropyl)-1,2,3,4-tetrahydroisoquinolin-6-yl)pyridin-4-yl)phenyl)-2-methoxypyridin-3-yl)methyl)amino)methyl)pyrrolidin-2-one] here?
**A.** 0.0566 µM

**Q.** Which EC50 does the source give for `COc1cc(-c2nccc(-c3cccc(-c4ccc(CNC[C@@H]5CCC(=O)N5)c(OC)n4)c3Cl)c2Cl)ccc1CN1CC[C@H](C(=O)OC(C)C)C1` [Cmpd 76, isopropyl (S)-1-(4-(3-chloro-4-(2-chloro-3-(6-methoxy-5-(((((S)-5-oxopyrrolidin-2-yl)methyl)amino)methyl)pyridin-2-yl)phenyl)pyridin-2-yl)-2-methoxybenzyl)pyrrolidine-3-carboxylate] here?
**A.** 0.0897 µM

**Q.** How did the EC50 turn out when `COc1nc(-c2cccc(-c3ccnc(-c4cc(OC)c5nc(CN[C@H]6C[C@](C)(O)C6)nn5c4)c3Cl)c2Cl)ccc1CNC1CCN(C(C)=O)CC1` [Example 596, 1-(4-(((6-(2-Chloro-3-(3-chloro-2-(2-((((1r,3r)-3-hydroxy-3-methylcyclobutyl)amino)methyl)-8-methoxy-[1,2,4]triazolo[1,5-a]pyridin-6-yl)pyridin-4-yl)phenyl)-2-methoxypyridin-3-yl)methyl)amino)piperidin-1-yl)ethan-1-one] was run?
**A.** 0.35 µM

**Q.** How did the EC50 turn out when `COc1cc(-c2nccc(-c3cccc(NC(=O)c4ccc(CNC5CCOCC5)cn4)c3Cl)c2Cl)ccc1CNC1CCOCC1` [Example 674, N-(2-Chloro-3-(3-chloro-2-(3-methoxy-4-(((tetrahydro-2H-pyran-4-yl)amino)methyl)phenyl)pyridin-4-yl)phenyl)-5-(((tetrahydro-2H-pyran-4-yl)amino)methyl)picolinamide] was run?
**A.** 0.337 µM

**Q.** `COc1nc(-c2cccc(-c3ccnc(-c4ccc5c(c4)CCC[C@H]5NC[C@@H]4CCC(=O)N4)c3Cl)c2Cl)ccc1CNC[C@H](C)O` [Example 256, (S)-5-((((R)-6-(3-Chloro-4-(2-chloro-3-(5-((((S)-2-hydroxypropyl)amino)methyl)-6-methoxypyridin-2-yl)phenyl)pyridin-2-yl)-1,2,3,4-tetrahydronaphthalen-1-yl)amino)methyl)pyrrolidin-2-one] was tested. Which EC50 did it give?
**A.** 0.168 µM

**Q.** With `COc1cc(-c2nccc(-c3cccc(-c4ccc(CNC5CCN(CC(F)F)CC5)c(OC)n4)c3Cl)c2Cl)ccc1CNC1CCN(CC(F)F)CC1` [Example 420, N-((6-(2-Chloro-3-(3-chloro-2-(4-(((1-(2,2-difluoroethyl)piperidin-4-yl)amino)methyl)-3-methoxyphenyl)pyridin-4-yl)phenyl)-2-methoxypyridin-3-yl)methyl)-1-(2,2-difluoroethyl)piperidin-4-amine] as the compound, how does the EC50 read?
**A.** 0.0426 µM
